Data on 11 compounds can be found in PMC12133000 (PLOS One, 2025).

Molecules are shown by their SMILES. Read-outs that look alike come from different tables or passages of the source.

Data set [1] deals with rat liver microsomes (RLMs). The data set is described as follows: Inhibitory mechanism (Ki, αKi, Lineweaver-Burk plots) in RLMs. Conditions: read-out: inhibitory constant (Ki), substrate rivaroxaban.
From the text: Ki and αKi values were computed, and the inhibitory mechanism was examined using Lineweaver–Burk plots.
A further data set relates to CYP2J2. Conditions: cited from earlier work; for inhibition of rivaroxaban hydroxylation by CYP2J2: in vitro ref 24.
Data set [2] has as its system rat liver microsomes (RLMs). The data set is described as follows: EGFR TKI screening: rivaroxaban metabolite M-2 formation in RLM incubation. The class given is in vitro ADME. On the procedure: The system was preincubated at 37 °C for 5 min, followed by the addition of NADPH (1 mM) to initiate the reaction. After incubating for an additional 30 min, a 200 μL of acetonitrile solution containing 200 ng/mL midazolam was introduced. The mixture was vortexed for 30 s, centrifuged at 13000 rpm for 5 min, and the supernatant was removed. Three samples were collected for each group.

For data set [3] the following is noted: patients on rivaroxaban, combination with clarithromycin ref 33; cited from earlier work.
The next data set relates to P-gp. Also on record: method as in PMID 35174529. Conditions: in vitro, combination with rivaroxaban ref 21; read-out: IC50 (inhibitory properties of TKIs on DOACs, P-gp mediated); cited from earlier work.
In another data set the test system is CYP3A4. The note with it: in vitro ref 25; cited from earlier work.
For data set [4] the following is noted: combination with TKI ref 25; cited from earlier work.

As for `C=CC(=O)Nc1cccc(Oc2nc(Nc3ccc(N4CCN(C)CC4)c(F)c3)nc3[nH]ccc23)c1` [avitinib, Avitinib], the Ki in data set [1] is 3.24 µM. In the data set on CYP2J2, the “inhibition pattern with rivaroxaban as probe substrate” value was “atypical inhibitory kinetics” and the “inhibition of rivaroxaban hydroxylation by CYP2J2” value is “concentration-dependent inhibition”. The “ratio of the metabolite concentration relative to the control” value in data set [2] (100 μM EGFR TKI, 0.5 mg/mL RLMs, rivaroxaban metabolite M-2, average) was found to be 5.6%. In addition, in data set [2] (100 μM EGFR TKI, RLMs), the “effect on rivaroxaban metabolism (metabolite generation rate vs control)” value (shortened to “effect … (metabolite generation rate vs control)”) is on record as “significantly inhibited”.
In the case of `CC[C@H]1OC(=O)[C@H](C)[C@@H](O[C@H]2C[C@@](C)(OC)[C@@H](O)[C@H](C)O2)[C@H](C)[C@@H](O[C@@H]2O[C@H](C)C[C@H](N(C)C)[C@H]2O)[C@](C)(OC)C[C@@H](C)C(=O)[C@H](C)[C@@H](O)[C@]1(C)O` [clarithromycin], the “increase in the AUC value for rivaroxaban” value in data set [3] was “two-fold increase”.
As for `COc1cc2ncnc(Nc3ccc(F)c(Cl)c3)c2cc1NC(=O)/C=C/CN1CCCCC1` [dacomitinib], the “effect … (metabolite generation rate vs control)” value in data set [2] (100 μM EGFR TKI, RLMs) is recorded as “significantly inhibited”.
For the compound `C#Cc1cccc(Nc2ncnc3cc(OCCOC)c(OCCOC)cc23)c1` [erlotinib], in the data set with P-gp, the IC50 was below 10 µM.
Consider `COc1cc2ncnc(Nc3ccc(F)c(Cl)c3)c2cc1OCCCN1CCOCC1` [gefitinib, Gefitinib], for which the “inhibition of CYP3A4-mediated rivaroxaban metabolism” value in the data set with CYP3A4 is given as “potently inhibited”.
Turning to `Cc1ccc(NC(=O)c2ccc(CN3CCN(C)CC3)cc2)cc1Nc1nccc(-c2cccnc2)n1` [imatinib], in data set [4], the “increase of rivaroxaban AUC” value is reported as 119.96% and the “increase of rivaroxaban Cmax” value is 90.43%.
For `CS(=O)(=O)CCNCc1ccc(-c2ccc3ncnc(Nc4ccc(OCc5cccc(F)c5)c(Cl)c4)c3c2)o1` [lapatinib], the “effect … (metabolite generation rate vs control)” value in data set [2] was “significantly inhibited”.
Same read-out and setting: next, `CCOc1cc2ncc(C#N)c(Nc3ccc(OCc4ccccn4)c(Cl)c3)c2cc1NC(=O)/C=C/CN(C)C` [neratinib]: “significantly inhibited”.
For the compound `Cc1cn(-c2cc(NC(=O)c3ccc(C)c(Nc4nccc(-c5cccnc5)n4)c3)cc(C(F)(F)F)c2)cn1` [nilotinib], in the data set with P-gp, the IC50 is […].
Turning to `C=CC(=O)Nc1cc(Nc2nccc(-c3cn(C)c4ccccc34)n2)c(OC)cc1N(C)CCN(C)C` [osimertinib], in the data set with CYP2J2, the “inhibition pattern with rivaroxaban as probe substrate” value was “competitive inhibition” and the “inhibition of rivaroxaban hydroxylation by CYP2J2” value is “concentration-dependent inhibition”.
With `CCN(CC)CCNC(=O)c1c(C)[nH]c(/C=C2\C(=O)Nc3ccc(F)cc32)c1C` [sunitinib], the “reduction in exposure to rivaroxaban in vivo” value in data set [4] is on record as 62.32%.

One may read the Ki as a dissociation constant, usually derived from enzyme kinetics or from competition with a known ligand. As usually defined, the IC50 is the concentration at which inhibition is half-maximal.
